Data reported in paper PMC10176470, “Engaging a Non-catalytic Cysteine Residue Drives Potent and Selective Inhibition of Caspase-6” (Journal of the American Chemical Society, 2023).
Read-outs that look alike come from different tables or passages of the source.

Assays:
Assay type in all cases: cell-based
[1] = molecular target: proteins of HEK293T cells transiently overexpressing caspase-6 (Homo sapiens, UniProt Q14974); details: protein KPNB1 (Q14974)
[2] = molecular target: proteins of HEK293T cells transiently overexpressing caspase-6 (Homo sapiens, UniProt P15880); details: protein RPS2 (P15880)
[3] = molecular target: proteins of HEK293T cells transiently overexpressing caspase-6 (Homo sapiens, UniProt P52597); details: Probe; protein HNRNPF P52597
Chain of proteins of HEK293T cells transiently overexpressing caspase-6 (Homo sapiens, UniProt P52597) (P52597 whole entry): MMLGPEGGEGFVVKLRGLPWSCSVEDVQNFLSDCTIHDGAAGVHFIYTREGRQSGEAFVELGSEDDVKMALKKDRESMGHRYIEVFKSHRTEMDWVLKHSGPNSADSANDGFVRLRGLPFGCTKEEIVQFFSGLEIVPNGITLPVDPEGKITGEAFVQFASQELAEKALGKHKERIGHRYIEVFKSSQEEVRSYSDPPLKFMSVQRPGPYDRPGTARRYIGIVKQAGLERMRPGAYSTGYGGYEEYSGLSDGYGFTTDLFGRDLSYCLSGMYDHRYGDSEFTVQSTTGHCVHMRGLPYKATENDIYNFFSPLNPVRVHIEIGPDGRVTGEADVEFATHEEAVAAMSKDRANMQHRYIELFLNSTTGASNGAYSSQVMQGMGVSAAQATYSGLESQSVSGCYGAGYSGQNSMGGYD

[4] = molecular target: proteins of HEK293T cells transiently overexpressing caspase-6 (Homo sapiens, UniProt Q16531); details: Probe; protein DDB1 Q16531
Chain of proteins of HEK293T cells transiently overexpressing caspase-6 (Homo sapiens, UniProt Q16531) (Q16531 whole entry): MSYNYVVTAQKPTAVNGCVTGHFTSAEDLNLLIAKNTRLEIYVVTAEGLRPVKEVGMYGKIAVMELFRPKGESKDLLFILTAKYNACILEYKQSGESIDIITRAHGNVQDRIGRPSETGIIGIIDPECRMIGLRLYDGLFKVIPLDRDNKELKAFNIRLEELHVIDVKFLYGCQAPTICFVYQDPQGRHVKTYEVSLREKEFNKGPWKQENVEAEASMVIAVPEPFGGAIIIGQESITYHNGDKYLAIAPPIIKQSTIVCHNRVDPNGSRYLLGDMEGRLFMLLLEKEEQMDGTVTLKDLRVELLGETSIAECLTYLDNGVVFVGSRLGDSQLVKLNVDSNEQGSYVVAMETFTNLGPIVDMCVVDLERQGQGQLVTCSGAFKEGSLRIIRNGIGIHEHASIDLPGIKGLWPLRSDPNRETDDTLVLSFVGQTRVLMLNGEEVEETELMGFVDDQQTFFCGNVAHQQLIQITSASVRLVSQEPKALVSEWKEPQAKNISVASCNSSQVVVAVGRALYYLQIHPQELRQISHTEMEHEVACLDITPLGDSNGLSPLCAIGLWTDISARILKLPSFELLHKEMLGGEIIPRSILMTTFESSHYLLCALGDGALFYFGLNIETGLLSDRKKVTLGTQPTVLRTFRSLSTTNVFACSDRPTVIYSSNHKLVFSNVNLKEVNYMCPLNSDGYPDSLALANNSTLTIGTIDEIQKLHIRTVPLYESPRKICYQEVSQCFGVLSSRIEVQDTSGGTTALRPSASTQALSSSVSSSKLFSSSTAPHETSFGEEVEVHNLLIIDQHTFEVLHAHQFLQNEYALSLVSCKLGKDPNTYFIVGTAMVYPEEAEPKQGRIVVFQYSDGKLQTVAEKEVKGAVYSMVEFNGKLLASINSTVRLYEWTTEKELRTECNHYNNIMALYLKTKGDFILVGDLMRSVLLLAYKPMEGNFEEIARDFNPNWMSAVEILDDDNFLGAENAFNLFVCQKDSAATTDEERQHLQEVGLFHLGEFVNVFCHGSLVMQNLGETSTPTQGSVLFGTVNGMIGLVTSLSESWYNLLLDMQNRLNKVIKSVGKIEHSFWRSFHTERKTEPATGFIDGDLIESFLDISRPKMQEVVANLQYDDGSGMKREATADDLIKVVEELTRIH

[5] = molecular target: proteins of HEK293T cells transiently overexpressing caspase-6 (Homo sapiens, UniProt Q9BZZ5); details: exp_ref Probe; protein API5 (Q9BZZ5); analysis C6
[6] = molecular target: proteins of HEK293T cells transiently overexpressing caspase-6 (Homo sapiens, UniProt Q9UEG4)
Chain of proteins of HEK293T cells transiently overexpressing caspase-6 (Homo sapiens, UniProt Q9UEG4) (Q9UEG4 whole entry): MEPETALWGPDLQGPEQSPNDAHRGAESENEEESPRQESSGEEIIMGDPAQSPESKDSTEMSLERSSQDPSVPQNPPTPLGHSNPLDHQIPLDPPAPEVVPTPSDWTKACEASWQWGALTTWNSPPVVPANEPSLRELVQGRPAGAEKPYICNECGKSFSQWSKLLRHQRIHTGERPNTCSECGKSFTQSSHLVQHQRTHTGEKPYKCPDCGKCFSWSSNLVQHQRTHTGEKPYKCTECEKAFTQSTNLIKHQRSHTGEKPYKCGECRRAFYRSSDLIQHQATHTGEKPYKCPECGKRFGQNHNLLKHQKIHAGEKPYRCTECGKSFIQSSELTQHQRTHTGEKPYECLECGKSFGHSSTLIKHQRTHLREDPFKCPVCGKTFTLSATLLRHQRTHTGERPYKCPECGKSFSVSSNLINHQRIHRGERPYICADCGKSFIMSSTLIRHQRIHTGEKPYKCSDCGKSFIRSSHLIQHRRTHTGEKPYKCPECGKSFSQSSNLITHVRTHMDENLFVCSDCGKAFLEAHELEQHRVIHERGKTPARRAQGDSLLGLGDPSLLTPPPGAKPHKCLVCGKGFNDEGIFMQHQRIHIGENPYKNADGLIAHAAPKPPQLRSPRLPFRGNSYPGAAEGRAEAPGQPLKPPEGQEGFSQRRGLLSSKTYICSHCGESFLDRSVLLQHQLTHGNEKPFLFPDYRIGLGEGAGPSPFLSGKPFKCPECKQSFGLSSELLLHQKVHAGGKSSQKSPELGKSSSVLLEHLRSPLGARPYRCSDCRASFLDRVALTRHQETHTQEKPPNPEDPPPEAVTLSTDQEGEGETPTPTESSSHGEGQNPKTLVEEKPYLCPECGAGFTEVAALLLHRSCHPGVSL

[7] = molecular target: T1, proteins of HEK293T cells transiently overexpressing caspase-6 (Homo sapiens, UniProt P55212); details: for enrich.exp.med: exp_ref Probe
T1 sequence (P55212 24-293): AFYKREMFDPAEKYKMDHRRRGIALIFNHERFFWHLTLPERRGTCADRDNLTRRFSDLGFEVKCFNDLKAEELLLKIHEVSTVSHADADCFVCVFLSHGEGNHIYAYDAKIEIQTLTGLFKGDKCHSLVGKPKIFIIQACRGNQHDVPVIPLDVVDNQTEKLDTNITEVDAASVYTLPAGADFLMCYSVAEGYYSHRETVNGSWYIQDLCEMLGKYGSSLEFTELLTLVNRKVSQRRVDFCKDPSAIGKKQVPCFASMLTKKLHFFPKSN

[8] = molecular target: proteins of HEK293T cells transiently overexpressing caspase-6 (Homo sapiens, UniProt Q9Y617); details: Probe; protein PSAT1 Q9Y617
Chain of proteins of HEK293T cells transiently overexpressing caspase-6 (Homo sapiens, UniProt Q9Y617) (Q9Y617 whole entry): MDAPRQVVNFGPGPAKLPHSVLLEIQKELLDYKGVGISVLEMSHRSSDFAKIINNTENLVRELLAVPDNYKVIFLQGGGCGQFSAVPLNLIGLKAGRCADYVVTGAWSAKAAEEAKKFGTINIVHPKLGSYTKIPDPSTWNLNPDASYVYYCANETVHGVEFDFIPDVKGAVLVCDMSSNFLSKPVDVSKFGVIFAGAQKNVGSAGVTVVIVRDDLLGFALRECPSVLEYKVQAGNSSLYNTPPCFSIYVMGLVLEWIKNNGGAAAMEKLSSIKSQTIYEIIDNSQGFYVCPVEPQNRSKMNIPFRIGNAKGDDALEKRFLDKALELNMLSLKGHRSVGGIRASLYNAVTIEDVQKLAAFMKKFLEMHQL

[9] = molecular target: proteins of HEK293T cells transiently overexpressing caspase-6 (Homo sapiens, UniProt Q8TCD1); details: protein C18orf32 (Q8TCD1)
Chain of proteins of HEK293T cells transiently overexpressing caspase-6 (Homo sapiens, UniProt Q8TCD1) (Q8TCD1 whole entry): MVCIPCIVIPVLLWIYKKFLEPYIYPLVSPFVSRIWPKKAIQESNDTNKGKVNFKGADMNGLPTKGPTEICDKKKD

[10] = molecular target: T2, proteins of HEK293T cells transiently overexpressing caspase-6 (Homo sapiens, UniProt P28074)
T2 sequence (P28074 60-263): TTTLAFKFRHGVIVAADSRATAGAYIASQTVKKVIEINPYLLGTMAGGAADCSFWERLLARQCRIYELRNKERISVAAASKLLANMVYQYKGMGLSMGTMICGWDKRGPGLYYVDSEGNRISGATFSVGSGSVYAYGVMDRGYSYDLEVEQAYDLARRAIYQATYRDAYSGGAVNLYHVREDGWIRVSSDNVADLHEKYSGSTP

[11] = molecular target: proteins of HEK293T cells transiently overexpressing caspase-6 (Homo sapiens, UniProt P10599); details: exp_ref Probe; protein TXN (P10599); analysis C6
Chain of proteins of HEK293T cells transiently overexpressing caspase-6 (Homo sapiens, UniProt P10599) (P10599 whole entry): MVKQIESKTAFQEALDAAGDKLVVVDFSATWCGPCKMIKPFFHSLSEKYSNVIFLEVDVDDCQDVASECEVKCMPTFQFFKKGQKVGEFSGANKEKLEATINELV

[12] = molecular target: proteins of HEK293T cells transiently overexpressing caspase-6 (Homo sapiens, UniProt P62424); details: exp_ref Probe; protein RPL7A (P62424); analysis C6
[13] = molecular target: proteins of HEK293T cells transiently overexpressing caspase-6 (Homo sapiens, UniProt P36578); details: exp_ref Probe; protein RPL4 (P36578); analysis C6
[14] = molecular target: proteins of HEK293T cells transiently overexpressing caspase-6 (Homo sapiens, UniProt O75390); details: exp_ref Probe; protein CS (O75390); analysis C6
Chain of proteins of HEK293T cells transiently overexpressing caspase-6 (Homo sapiens, UniProt O75390) (O75390 28-466): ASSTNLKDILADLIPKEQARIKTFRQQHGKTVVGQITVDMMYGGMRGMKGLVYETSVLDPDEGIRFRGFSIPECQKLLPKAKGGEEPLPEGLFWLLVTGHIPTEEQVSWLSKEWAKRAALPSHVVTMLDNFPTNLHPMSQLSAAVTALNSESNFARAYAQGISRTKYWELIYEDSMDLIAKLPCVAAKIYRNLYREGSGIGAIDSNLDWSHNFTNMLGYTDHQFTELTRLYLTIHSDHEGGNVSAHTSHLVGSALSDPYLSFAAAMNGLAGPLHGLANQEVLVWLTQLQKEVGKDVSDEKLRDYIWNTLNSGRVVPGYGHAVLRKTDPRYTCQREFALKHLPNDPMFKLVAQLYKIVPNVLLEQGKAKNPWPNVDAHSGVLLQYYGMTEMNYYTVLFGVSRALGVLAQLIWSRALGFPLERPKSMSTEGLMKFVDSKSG

[15] = molecular target: T3, proteins of HEK293T cells transiently overexpressing caspase-6 (Homo sapiens, UniProt Q13642)
T3 sequence (Q13642 1-323): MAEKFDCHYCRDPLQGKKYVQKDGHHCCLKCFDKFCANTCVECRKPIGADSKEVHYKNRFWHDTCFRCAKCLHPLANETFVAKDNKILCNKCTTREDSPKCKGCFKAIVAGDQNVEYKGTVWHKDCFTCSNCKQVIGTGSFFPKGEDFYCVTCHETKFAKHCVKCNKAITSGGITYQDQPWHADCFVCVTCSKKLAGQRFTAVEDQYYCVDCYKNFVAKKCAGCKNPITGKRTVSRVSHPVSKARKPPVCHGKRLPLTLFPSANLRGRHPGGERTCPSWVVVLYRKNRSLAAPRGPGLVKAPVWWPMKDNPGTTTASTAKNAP

[16] = molecular target: proteins of HEK293T cells transiently overexpressing caspase-6 (Homo sapiens, UniProt P0DMV8); details: protein HSPA1A (P0DMV8)
Chain of proteins of HEK293T cells transiently overexpressing caspase-6 (Homo sapiens, UniProt P0DMV8) (P0DMV8 whole entry): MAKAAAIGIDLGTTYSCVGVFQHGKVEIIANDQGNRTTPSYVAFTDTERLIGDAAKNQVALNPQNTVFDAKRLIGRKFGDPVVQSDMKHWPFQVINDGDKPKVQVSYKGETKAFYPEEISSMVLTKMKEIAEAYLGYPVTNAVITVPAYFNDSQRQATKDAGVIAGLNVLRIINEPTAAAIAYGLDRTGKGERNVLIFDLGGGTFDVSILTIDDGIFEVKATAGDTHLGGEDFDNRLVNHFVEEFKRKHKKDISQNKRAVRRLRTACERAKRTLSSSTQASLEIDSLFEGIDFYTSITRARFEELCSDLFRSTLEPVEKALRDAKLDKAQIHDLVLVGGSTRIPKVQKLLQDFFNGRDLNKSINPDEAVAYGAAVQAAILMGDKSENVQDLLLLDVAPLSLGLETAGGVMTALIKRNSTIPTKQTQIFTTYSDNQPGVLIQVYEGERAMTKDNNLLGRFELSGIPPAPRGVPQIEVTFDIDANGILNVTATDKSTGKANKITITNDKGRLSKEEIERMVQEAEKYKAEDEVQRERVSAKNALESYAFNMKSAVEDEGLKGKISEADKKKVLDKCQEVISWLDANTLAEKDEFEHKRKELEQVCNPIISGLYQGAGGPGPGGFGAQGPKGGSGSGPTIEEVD

[17] = protein CASP6SMALL (P55212), Expt Probe, analysis C6

Chain of proteins of HEK293T cells transiently overexpressing caspase-6 (Homo sapiens, UniProt Q14974) (Q14974 whole entry): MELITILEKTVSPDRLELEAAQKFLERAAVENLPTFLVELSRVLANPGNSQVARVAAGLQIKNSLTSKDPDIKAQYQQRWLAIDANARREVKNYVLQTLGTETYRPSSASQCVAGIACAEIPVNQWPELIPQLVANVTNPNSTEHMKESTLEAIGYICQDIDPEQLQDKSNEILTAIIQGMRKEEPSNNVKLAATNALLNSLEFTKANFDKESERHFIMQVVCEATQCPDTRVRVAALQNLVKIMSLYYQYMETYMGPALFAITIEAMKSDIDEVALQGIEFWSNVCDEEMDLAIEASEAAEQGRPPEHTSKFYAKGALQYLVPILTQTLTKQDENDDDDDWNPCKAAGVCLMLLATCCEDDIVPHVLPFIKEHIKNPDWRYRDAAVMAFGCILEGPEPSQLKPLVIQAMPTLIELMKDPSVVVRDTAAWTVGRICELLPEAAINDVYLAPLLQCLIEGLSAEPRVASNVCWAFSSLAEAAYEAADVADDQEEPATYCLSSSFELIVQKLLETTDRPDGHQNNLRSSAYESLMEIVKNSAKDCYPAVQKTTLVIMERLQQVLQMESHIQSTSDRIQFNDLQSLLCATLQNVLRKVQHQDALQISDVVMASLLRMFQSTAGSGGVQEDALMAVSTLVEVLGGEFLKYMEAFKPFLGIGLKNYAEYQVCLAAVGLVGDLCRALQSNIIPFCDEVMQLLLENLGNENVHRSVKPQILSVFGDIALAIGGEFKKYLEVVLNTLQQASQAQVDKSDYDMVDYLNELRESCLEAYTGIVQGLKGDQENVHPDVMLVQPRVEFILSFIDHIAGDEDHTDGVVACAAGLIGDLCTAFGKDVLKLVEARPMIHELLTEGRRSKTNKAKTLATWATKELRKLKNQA

Work on `C#CCOc1ccc([C@@H]2C[C@@H](C(=O)Nc3ccc(OC(F)(F)F)cc3)CN(S(=O)(=O)C=C)C2)cc1` (relative stereo) [13-t] yielded an enrich.exp.med ([1]; exp_ref Probe, analysis C6) of 0.7787, an enrich.exp.med.lin [1] of 1.716 and an enrich.exp.med.log2 [1] of 0.7787. It also gave an enrich.exp.med ([2]; exp_ref Probe, analysis C6) of 0.988, an enrich.exp.med.lin [2] of 1.9835 and an enrich.exp.med.log2 [2] of 0.988. It also gave an enrich.exp.med [3] of -0.4498, an enrich.exp.med [4] of -0.5354 and an enrich.exp.med [5] of 0.9484. For the same compound, the enrich.exp.med ([6]; Probe, protein ZNF629 Q9UEG4) was -2.2193, the enrich.exp.med.lin ([6]; protein ZNF629 (Q9UEG4)) was 0.2147 and the enrich.exp.med.log2 ([6]; protein ZNF629 (Q9UEG4)) was -2.2193. The enrich.exp.med ([7]; protein CASP6LARGE (P55212), analysis C6) was 0.6468, the enrich.exp.med.lin ([7]; protein CASP6LARGE (P55212)) was 1.566 and the enrich.exp.med.log2 ([7]; protein CASP6LARGE (P55212)) was 0.6468. For the same compound, the enrich.exp.med.lin ([7]; protein CASP6SMALL (P55212)) was 9.435, the enrich.exp.med.log2 ([7]; protein CASP6SMALL (P55212)) was 3.238 and the enrich.exp.med.lin [7, 17] was 9.435. It also gave an enrich.exp.med.log2 [7, 17] of 3.238, an enrich.exp.med ([7]; protein CASP6SMALL (P55212), analysis C6) of 3.238 and an enrich.exp.med [8] of -1.015. For the same compound, the enrich.exp.med.lin [9] was 5.403, the enrich.exp.med.log2 [9] was 2.434 and the enrich.exp.med.lin ([9]; Expt Probe, analysis C6) was 5.403. It also gave an enrich.exp.med.log2 ([9]; Expt Probe, analysis C6) of 2.434, an enrich.exp.med ([9]; exp_ref Probe, analysis C6) of 2.434 and an enrich.exp.med ([10]; Probe, protein PSMB5 P28074) of -2.323. The enrich.exp.med.lin ([10]; protein PSMB5 (P28074)) was 0.1999, the enrich.exp.med.log2 ([10]; protein PSMB5 (P28074)) was -2.323 and the enrich.exp.med [11] was 0.866. It also gave an enrich.exp.med [12] of 0.8961, an enrich.exp.med [13] of 0.4261 and an enrich.exp.med [14] of -0.1126. It also gave an enrich.exp.med ([15]; Probe, protein FHL1 Q13642) of -0.95, an enrich.exp.med.lin ([15]; protein FHL1 (Q13642)) of 0.5176 and an enrich.exp.med.log2 ([15]; protein FHL1 (Q13642)) of -0.95. It also gave an enrich.exp.med ([16]; exp_ref Probe, analysis C6) of 0.4797, an enrich.exp.med.lin [16] of 1.394 and an enrich.exp.med.log2 [16] of 0.4797.
